Test results from PubChem BioAssay AID248 (DTP/NCI, 2004).
Where “and” joins values, the source holds several entries; their conditions need not be identical. Identical values can stand only once. Toxic doses and inconclusive results are not listed. No stated cut-off is given here; in the data, active means T/C of 150% or more; inactive means T/C below 125%.

Tested on: L1210 leukemia ip in BDF1 mice, survival T/C
Assay: NCI In Vivo Anticancer Drug Screen. Data for tumor model L1210 Leukemia (intraperitoneal) in B6D2F1 (BDF1) mice
Conditions: endpoint: mean survival time, higher = longer survival
In short: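 Survival endpoint. Drug-treated group vs vehicle group, expressed as T divided by C. Tumor passaged by transplantation.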

[1] = dose: 100.0 mg/kg/injection, schedule: Q01DX001 (ip), vehicle: saline
[2] = dose: 100.0 mg/kg/injection, schedule: Q01DX009 (ip), vehicle: Klucel (hydroxypropylcellulose) (HPC)
[3] = dose: 100.0 mg/kg/injection, schedule: Q01DX009 (ip), vehicle: saline with Tween-80
[4] = dose: 100.0 mg/kg/injection, schedule: Q04DX003 (ip), vehicle: Klucel (hydroxypropylcellulose) (HPC)
[5] = dose: 200.0 mg/kg/injection, schedule: Q01DX001 (ip), vehicle: saline
[6] = dose: 200.0 mg/kg/injection, schedule: Q01DX009 (ip), vehicle: Klucel (hydroxypropylcellulose) (HPC)
[7] = dose: 200.0 mg/kg/injection, schedule: Q01DX009 (ip), vehicle: saline with Tween-80
[8] = dose: 200.0 mg/kg/injection, schedule: Q04DX003 (ip), vehicle: Klucel (hydroxypropylcellulose) (HPC)
[9] = dose: 400.0 mg/kg/injection, schedule: Q01DX001 (ip), vehicle: saline
[10] = dose: 400.0 mg/kg/injection, schedule: Q01DX009 (ip), vehicle: Klucel (hydroxypropylcellulose) (HPC)
[11] = dose: 400.0 mg/kg/injection, schedule: Q01DX009 (ip), vehicle: saline with Tween-80
[12] = dose: 400.0 mg/kg/injection, schedule: Q04DX003 (ip), vehicle: Klucel (hydroxypropylcellulose) (HPC)
[13] = dose: 100.0 mg/kg/injection, schedule: Q01DX001 (ip), vehicle: saline with Tween-80
[14] = dose: 200.0 mg/kg/injection, schedule: Q01DX001 (ip), vehicle: saline with Tween-80
[15] = dose: 400.0 mg/kg/injection, schedule: Q01DX001 (ip), vehicle: saline with Tween-80
[16] = dose: 100.0 mg/kg/injection, schedule: Q04DX002 (ip), vehicle: Klucel (hydroxypropylcellulose) (HPC)
[17] = dose: 200.0 mg/kg/injection, schedule: Q04DX002 (ip), vehicle: Klucel (hydroxypropylcellulose) (HPC)
[18] = dose: 400.0 mg/kg/injection, schedule: Q04DX002 (ip), vehicle: Klucel (hydroxypropylcellulose) (HPC)
[19] = dose: 100.0 mg/kg/injection, schedule: Q04DX002 (ip), vehicle: saline with Tween-80
[20] = dose: 200.0 mg/kg/injection, schedule: Q04DX002 (ip), vehicle: saline with Tween-80

Measured: T/C

COc1ccc(CCNC(=O)Cc2ccc(OC)c(OC)c2)cc1OC
inactive: dose: 12.5 mg/kg/injection, schedule: Q04DX003 (ip), vehicle: saline with Tween-80 94 % of control | dose: 25.0 mg/kg/injection, schedule: Q04DX003 (ip), vehicle: saline with Tween-80 110 % of control | dose: 50.0 mg/kg/injection, schedule: Q04DX003 (ip), vehicle: saline with Tween-80 100 % of control | [1] 98 % of control | [2] 94 % of control | dose: 100.0 mg/kg/injection, schedule: Q01DX009 (ip), vehicle: saline sonified 100 % of control | [3] 86 % of control | [4] 105 % of control | dose: 100.0 mg/kg/injection, schedule: Q04DX003 (ip), vehicle: saline with Tween-80 107 % of control | [5] 92 % of control | [6] 96 % of control | dose: 200.0 mg/kg/injection, schedule: Q01DX009 (ip), vehicle: saline sonified 100 % of control | [7] 95 % of control | [8] 112 % of control | dose: 200.0 mg/kg/injection, schedule: Q04DX003 (ip), vehicle: saline with Tween-80 94 % of control | [9] 93 % of control | [10] 98 % of control | dose: 400.0 mg/kg/injection, schedule: Q01DX009 (ip), vehicle: saline sonified 90 % of control | [11] 91 % of control | [12] 104 % of control | dose: 400.0 mg/kg/injection, schedule: Q04DX003 (ip), vehicle: saline with Tween-80 92 % of control

CC1(C)C=C(C(Br)c2cccc(Br)c2)C(=O)c2ccccc21 (stereo unspecified)
inactive: [2] 101 % of control | [4] 97 % of control | [6] 100 % of control | [8] 95 % of control | [10] 102 % of control | [12] 103 % of control

O=C(CCC(=O)c1ccccc1)c1ccccc1
inactive: [13] 100 % of control | [14] 98 % of control | [15] 95 % of control

Cc1ccc(NC(=O)Oc2ccccc2C(=O)OCc2ccccc2)cc1
inactive: [2] 101 % of control | [16] 88 % of control | [6] 106 % of control | [17] 88 % of control | [10] 101 % of control | [18] 107 % of control

COc1ccc([N+](=O)[O-])cc1NC(=O)N1CCCCC1C (stereo unspecified)
inactive: dose: 100.0 mg/kg/injection, schedule: Q01DX001 (ip), vehicle: Klucel (hydroxypropylcellulose) (HPC) 101 % of control | [2] 98 % of control and 102 % of control | [16] 97 % of control and 103 % of control | [4] 106 % of control | dose: 200.0 mg/kg/injection, schedule: Q01DX001 (ip), vehicle: Klucel (hydroxypropylcellulose) (HPC) 102 % of control | [6] 98 % of control and 106 % of control | [17] 94 % of control and 105 % of control | [8] 99 % of control | dose: 400.0 mg/kg/injection, schedule: Q01DX001 (ip), vehicle: Klucel (hydroxypropylcellulose) (HPC) 96 % of control | [10] 95 % of control and 96 % of control | [18] 94 % of control and 110 % of control | [12] 91 % of control

CCN=C(NCC)Nc1ccc(NC(=O)c2ccc(C(=O)Nc3ccc(NC(=NCC)NCC)cc3)cc2)cc1
inactive: dose: 1.87 mg/kg/injection, schedule: Q01DX Z (ip), vehicle: water 93 % of control | dose: 3.75 mg/kg/injection, schedule: Q01DX Z (ip), vehicle: water 97 % of control | dose: 7.5 mg/kg/injection, schedule: Q01DX Z (ip), vehicle: water 109 % of control | dose: 20.0 mg/kg/injection, schedule: Q01DX001 (ip), vehicle: carboxymethylcellulose (CMC) 103 % of control | dose: 21.0 mg/kg/injection, schedule: Q01DX001 (ip), vehicle: other 103 % of control | dose: 31.0 mg/kg/injection, schedule: Q01DX001 (ip), vehicle: other 105 % of control | dose: 40.0 mg/kg/injection, schedule: Q01DX001 (ip), vehicle: carboxymethylcellulose (CMC) 104 % of control | dose: 47.0 mg/kg/injection, schedule: Q01DX001 (ip), vehicle: other 116 % of control | dose: 70.0 mg/kg/injection, schedule: Q01DX001 (ip), vehicle: other 114 % of control | dose: 75.0 mg/kg/injection, schedule: Q01DX001 (ip), vehicle: other 118 % of control | dose: 75.0 mg/kg/injection, schedule: Q01DX009 (ip), vehicle: other 107 % of control | dose: 80.0 mg/kg/injection, schedule: Q01DX001 (ip), vehicle: carboxymethylcellulose (CMC) 119 % of control | dose: 100.0 mg/kg/injection, schedule: Q01DX001 (ip), vehicle: carboxymethylcellulose (CMC) 121 % of control | dose: 106.0 mg/kg/injection, schedule: Q01DX001 (ip), vehicle: other 114 % of control | dose: 160.0 mg/kg/injection, schedule: Q01DX001 (ip), vehicle: other 112 % of control
active: dose: 8.0 mg/kg/injection, schedule: Q01DX009 (ip), vehicle: carboxymethylcellulose (CMC) 156 % of control | dose: 16.0 mg/kg/injection, schedule: Q01DX009 (ip), vehicle: carboxymethylcellulose (CMC) 167 % of control | dose: 33.0 mg/kg/injection, schedule: Q01DX009 (ip), vehicle: other 190 % of control | dose: 50.0 mg/kg/injection, schedule: Q01DX009 (ip), vehicle: other 181 % of control | dose: 150.0 mg/kg/injection, schedule: Q01DX001 (ip), vehicle: other 153 % of control | dose: 160.0 mg/kg/injection, schedule: Q01DX001 (ip), vehicle: carboxymethylcellulose (CMC) 167 % of control and 196 % of control | dose: 240.0 mg/kg/injection, schedule: Q01DX001 (ip), vehicle: other 227 % of control | dose: 300.0 mg/kg/injection, schedule: Q01DX001 (ip), vehicle: other 212 % of control

Cc1cn(CC(C)C)c(=O)n(-c2ccccc2)c1=O
inactive: dose: 100.0 mg/kg/injection, schedule: Q01DX Z (ip), vehicle: methylcellulose (MC) 95 % of control

Cc1cccc(OC(=O)Nc2ccc(Cl)cc2)c1
inactive: [13] 93 % of control | [3] 89 % of control | [16] 88 % of control | [19] 100 % of control and 92 % of control | [14] 90 % of control | [7] 93 % of control | [17] 98 % of control | [20] 107 % of control and 90 % of control | [15] 90 % of control | [18] 109 % of control | dose: 400.0 mg/kg/injection, schedule: Q04DX002 (ip), vehicle: saline with Tween-80 113 % of control and 114 % of control

CSc1ccc(NC(=O)Nc2ccc(NC(C)=O)cc2)cc1
inactive: [3] 97 % of control | [7] 98 % of control | [11] 97 % of control

Cc1ccc(N=NN(C)CC#N)cc1
inactive: dose: 25.0 mg/kg/injection, schedule: Q04DX003 (ip), vehicle: other 96 % of control | dose: 50.0 mg/kg/injection, schedule: Q04DX003 (ip), vehicle: other 96 % of control | dose: 100.0 mg/kg/injection, schedule: Q04DX003 (ip), vehicle: other 93 % of control and 105 % of control

O=c1c(O)c(-c2ccc(Cl)cc2)oc2ccccc12
inactive: dose: 50.0 mg/kg/injection, schedule: Q01DX001 (ip), vehicle: saline 87 % of control | [1] 93 % of control | [5] 93 % of control | [9] 98 % of control

O=c1ccn2ccccc2n1
inactive: dose: 50.0 mg/kg/injection, schedule: Q01DX009 (ip), vehicle: saline 101 % of control | dose: 100.0 mg/kg/injection, schedule: Q01DX009 (ip), vehicle: saline 99 % of control | dose: 100.0 mg/kg/injection, schedule: Q04DX003 (ip), vehicle: saline 103 % of control | dose: 200.0 mg/kg/injection, schedule: Q01DX009 (ip), vehicle: saline 98 % of control | dose: 200.0 mg/kg/injection, schedule: Q04DX003 (ip), vehicle: saline 109 % of control

Cc1cccc(C)c1NC(=O)N1CCN(C)CC1
inactive: dose: 25.0 mg/kg/injection, schedule: Q04DX002 (ip), vehicle: saline with Tween-80 108 % of control | dose: 50.0 mg/kg/injection, schedule: Q04DX002 (ip), vehicle: saline with Tween-80 111 % of control | [2] 108 % of control | [16] 88 % of control | [19] 101 % of control | [6] 103 % of control

COC(=N)c1ccc(O)cc1
inactive: [19] 94 % of control | [20] 98 % of control
